The results in this text go back to US12071453B2, “Neuroactive steroids, compositions, and uses thereof” (Sage Therapeutics, Inc., priority 2013, dated 2024).

Structures are written as SMILES.

For series [1], the target named is [35S]-TBPS binding in rat brain cortical membranes. The series can be described thus: Steroid inhibition of [35S]-TBPS binding, rat brain cortical membranes. As to conditions: 3 nM [35S]-TBPS, in the presence of 5 μM GABA, read-out: 35S-TBPS Radioligand Displacement (IC50). The gist of the method: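 Washed P2 cortical membranes from Sprague-Dawley rats were incubated 90 min at room temperature with 3 nM [35S]-TBPS, 5 μM GABA and test steroid (0.5% DMSO) in 200 mM NaCl/50 mM Na–K phosphate, pH 7.4. Nonspecific binding was defined with 2 μM unlabeled TBPS, and samples were filtered and counted. IC50 and Imax came from non-linear fits, reported as mean ± SEM.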

In series [2] the target is T1, GABAA receptors composed of the α1β2γ2 subunits (GABRA1/GABRB2/GABRG2) (Homo sapiens, UniProt P14867+P47870).
T1 construct: expressed in transfected cells; host or cells: Xenopus laevis oocytes, injected (ratio 1:1:1)
T1 sequence (P14867 28-456): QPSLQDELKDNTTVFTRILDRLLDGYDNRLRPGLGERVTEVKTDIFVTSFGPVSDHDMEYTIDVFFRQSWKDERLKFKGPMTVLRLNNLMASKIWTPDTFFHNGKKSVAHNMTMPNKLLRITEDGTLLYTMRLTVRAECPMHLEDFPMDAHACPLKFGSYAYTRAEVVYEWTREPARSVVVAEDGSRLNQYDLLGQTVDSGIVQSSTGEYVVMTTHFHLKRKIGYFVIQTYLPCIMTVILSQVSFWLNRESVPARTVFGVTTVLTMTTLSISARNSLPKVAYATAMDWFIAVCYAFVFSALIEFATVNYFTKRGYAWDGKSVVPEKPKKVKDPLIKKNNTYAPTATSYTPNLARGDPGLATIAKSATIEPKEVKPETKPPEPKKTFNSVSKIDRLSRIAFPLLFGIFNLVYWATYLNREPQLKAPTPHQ
T1 sequence (P47870 26-512): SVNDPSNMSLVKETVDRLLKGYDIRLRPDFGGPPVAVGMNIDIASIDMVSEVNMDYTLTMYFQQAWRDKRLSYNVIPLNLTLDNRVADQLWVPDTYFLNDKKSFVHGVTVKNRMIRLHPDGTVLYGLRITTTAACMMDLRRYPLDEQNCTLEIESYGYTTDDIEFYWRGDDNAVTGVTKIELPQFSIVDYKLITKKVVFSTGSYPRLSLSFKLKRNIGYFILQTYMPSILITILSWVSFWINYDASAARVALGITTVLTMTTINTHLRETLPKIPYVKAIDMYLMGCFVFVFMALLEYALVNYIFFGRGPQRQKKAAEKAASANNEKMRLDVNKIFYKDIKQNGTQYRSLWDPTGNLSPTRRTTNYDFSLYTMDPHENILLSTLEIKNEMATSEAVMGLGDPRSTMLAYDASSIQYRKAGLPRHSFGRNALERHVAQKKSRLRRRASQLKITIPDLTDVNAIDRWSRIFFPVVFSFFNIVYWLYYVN
T1 sequence (P18507 40-475 partner): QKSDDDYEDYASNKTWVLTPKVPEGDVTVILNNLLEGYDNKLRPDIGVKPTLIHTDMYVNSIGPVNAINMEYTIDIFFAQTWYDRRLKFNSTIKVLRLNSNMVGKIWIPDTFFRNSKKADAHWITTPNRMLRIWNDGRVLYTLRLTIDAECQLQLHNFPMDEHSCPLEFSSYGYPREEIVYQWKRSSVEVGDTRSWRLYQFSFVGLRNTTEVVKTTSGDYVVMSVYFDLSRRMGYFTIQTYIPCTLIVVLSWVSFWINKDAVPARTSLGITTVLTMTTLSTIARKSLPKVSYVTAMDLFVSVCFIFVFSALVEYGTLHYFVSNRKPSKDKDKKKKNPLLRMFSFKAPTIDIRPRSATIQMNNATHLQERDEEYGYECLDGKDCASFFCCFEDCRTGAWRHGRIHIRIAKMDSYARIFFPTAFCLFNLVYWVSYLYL
The series can be described thus: Two Electrode Voltage Clamp (TEVC), GABA receptor potentiation in Xenopus laevis oocytes, α1β2γ2. The class given is cell-based. Particulars: 10 μM compound, 10 μM GABA, read-out: GABA (α1β2γ2) % efficacy at 10 μM. In general terms: Two-electrode voltage clamp holds a large cell at a set potential and records current.

In series [3] the target is T2, recombinant α1β2γ2 GABAA receptors (Homo sapiens, UniProt P14867+P47870).
T2 construct: expressed in transfected cells; host or cells: LTK cells, stably transfected
T2 sequence (P14867 28-456): as the sequence (P14867 28-456) above
T2 sequence (P47870 26-512): as the sequence (P47870 26-512) above
T2 sequence (P18507 40-475 partner): as the sequence (P18507 40-475 partner) above
The series can be described thus: Patch clamp electrophysiology (QPatch) in LTK cells stably transfected with α1β2γ2. Format: cell-based. As to conditions: 10 μM compound, 2 μM GABA (EC20), read-out: GABA (α1β2γ2) Qpatch in Ltk, % efficacy at 10 μM. (In general: Patch clamp records ionic current or voltage across a cell membrane.)

The target in series [4] is T3, recombinant α4β3δ GABAA receptors (Homo sapiens, UniProt P28472+P48169).
T3 construct: expressed in transfected cells; host or cells: CHO cells, transiently transfected (Lipofectamine)
T3 sequence (P48169 36-554): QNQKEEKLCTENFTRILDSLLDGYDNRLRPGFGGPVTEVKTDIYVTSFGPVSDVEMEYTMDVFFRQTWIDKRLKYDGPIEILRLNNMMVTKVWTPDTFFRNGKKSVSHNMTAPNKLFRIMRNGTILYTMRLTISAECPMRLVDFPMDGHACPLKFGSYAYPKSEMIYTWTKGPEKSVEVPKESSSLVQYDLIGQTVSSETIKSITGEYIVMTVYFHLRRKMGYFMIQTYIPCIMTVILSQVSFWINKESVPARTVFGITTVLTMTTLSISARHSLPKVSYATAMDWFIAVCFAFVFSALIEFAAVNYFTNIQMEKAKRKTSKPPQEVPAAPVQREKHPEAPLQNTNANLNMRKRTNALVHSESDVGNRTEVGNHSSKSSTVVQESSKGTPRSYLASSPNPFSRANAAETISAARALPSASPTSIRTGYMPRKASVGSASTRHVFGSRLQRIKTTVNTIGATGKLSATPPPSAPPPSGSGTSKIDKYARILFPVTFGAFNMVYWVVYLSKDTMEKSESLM
T3 sequence (P28472 26-473): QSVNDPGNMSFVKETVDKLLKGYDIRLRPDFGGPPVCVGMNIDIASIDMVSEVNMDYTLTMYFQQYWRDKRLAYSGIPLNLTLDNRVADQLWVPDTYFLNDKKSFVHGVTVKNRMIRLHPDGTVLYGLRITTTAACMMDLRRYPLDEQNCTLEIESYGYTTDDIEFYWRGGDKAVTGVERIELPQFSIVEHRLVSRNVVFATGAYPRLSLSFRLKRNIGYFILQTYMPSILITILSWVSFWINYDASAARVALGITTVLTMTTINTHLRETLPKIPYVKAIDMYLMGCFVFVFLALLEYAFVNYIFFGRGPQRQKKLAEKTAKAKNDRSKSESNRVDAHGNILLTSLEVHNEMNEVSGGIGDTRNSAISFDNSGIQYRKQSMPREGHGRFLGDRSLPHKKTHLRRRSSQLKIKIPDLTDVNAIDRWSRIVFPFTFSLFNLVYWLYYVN
T3 sequence (O14764 25-452 partner): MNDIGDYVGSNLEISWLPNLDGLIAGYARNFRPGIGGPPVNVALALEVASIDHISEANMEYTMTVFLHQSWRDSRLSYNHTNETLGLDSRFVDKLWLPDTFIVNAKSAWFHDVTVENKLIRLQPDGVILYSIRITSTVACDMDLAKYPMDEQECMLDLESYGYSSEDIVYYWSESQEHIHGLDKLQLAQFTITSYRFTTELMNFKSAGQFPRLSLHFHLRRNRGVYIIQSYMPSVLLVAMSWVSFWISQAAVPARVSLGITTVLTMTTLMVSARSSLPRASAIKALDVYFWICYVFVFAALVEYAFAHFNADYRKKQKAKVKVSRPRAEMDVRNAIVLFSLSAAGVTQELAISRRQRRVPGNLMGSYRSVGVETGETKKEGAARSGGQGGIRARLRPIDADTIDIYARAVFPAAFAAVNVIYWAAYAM
The series can be described thus: Manual patch clamp electrophysiology in CHO cells transiently transfected with α4β3δ. Format: cell-based. As to conditions: 10 μM compound, 2 μM GABA (EC20), read-out: GABA (α4β3δ) Manual patch in CHO, % efficacy at 10 μM.

For the compound `COC[C@]12CC[C@@](C)(O)C[C@@H]1CC[C@H]1[C@@H]3CC[C@H](C(=O)Cn4ccnn4)[C@@]3(C)CC[C@@H]12` [Compound 3], the melting point (usually the temperature of the solid-liquid transition) is 72 to 74 °C. In addition, the IC50 – broadly, the concentration that gives 50% inhibition – in series [1] is more than 500 nM.

`COC[C@]12CC[C@@](C)(O)C[C@@H]1CC[C@H]1[C@@H]3CC[C@H](C(=O)CN4CCN(C)CC4)[C@@]3(C)CC[C@@H]12` [Compound 8] showed a melting point of 136 to 137 °C. Moreover, the 50% inhibitory concentration (IC50) in series [1] is more than 500 nM.

In turn, `COC[C@]12CC[C@@](C)(O)C[C@@H]1CC[C@H]1[C@@H]3CC[C@H](C(=O)Cn4cc(C#N)cn4)[C@@]3(C)CC[C@@H]12` [Compound 13] gave a melting point of 141 to 142 °C. Further, the IC50 in series [1] lay within 50 to 100 nM. Moreover, the Emax at 10 µM in series [2] lay in the range of 1000 to 1500%.

Regarding `COC[C@]12CC[C@@](C)(O)C[C@@H]1CC[C@H]1[C@@H]3CC[C@H](C(=O)Cn4ncnn4)[C@@]3(C)CC[C@@H]12` [Compound 14], the melting point was 72 to 75 °C. Besides, the IC50 in series [1] was in the range of 10 to 50 nM. Further, the Emax at 10 µM in series [3] lay within 100 to 500%. Moreover, the Emax at 10 µM in series [4] is more than 500%.

Take `COC[C@]12CC[C@@](C)(O)C[C@@H]1CC[C@H]1[C@@H]3CC[C@H](C(=O)Cn4cnnn4)[C@@]3(C)CC[C@@H]12` [Compound 15]: the melting point was 88 to 91 °C. In series [1], the half-maximal inhibitory concentration (IC50) lay in the range of 100 to 500 nM. Moreover, the Emax at 10 µM in series [3] was more than 500%. The Emax at 10 µM in series [4] was in the range of 100 to 500%.

For the compound `COC[C@]12CC[C@@](C)(O)C[C@H]1CC[C@H]1[C@@H]3CC[C@H](C(=O)Cn4cc(C#N)cn4)[C@@]3(C)CC[C@@H]12` [Compound 27], the melting point lay in the range of 176 to 178 °C. For the same compound, the IC50 in series [1] is less than 10 nM. The Emax at 10 µM in series [2] fell in the range of 1000 to 1500%.

As for `COC[C@]12CC[C@@](C)(O)C[C@H]1CC[C@H]1[C@@H]3CC[C@H](C(=O)Cn4cc(Cl)cn4)[C@@]3(C)CC[C@@H]12` [Compound 34], the melting point fell in the range of 163 to 165 °C. Further, the half-inhibitory concentration (IC50) in series [1] was less than 10 nM. In addition, the Emax at 10 µM in series [2] was 50 to 500%.

Regarding `COC[C@]12CC[C@@](C)(O)C[C@@H]1CC[C@H]1[C@@H]3CC[C@H](C(=O)Cn4nc5ccc(F)cc5n4)[C@@]3(C)CC[C@@H]12` [Compound 43], the IC50 in series [1] is less than 10 nM. The Emax at 10 µM in series [3] was more than 500%; in series [4] it was 100 to 500%.

For `COC[C@]12CC[C@@](C)(O)C[C@@H]1CC[C@H]1[C@@H]3CC[C@H](C(=O)Cn4nnc5ccc(F)c(F)c54)[C@@]3(C)CC[C@@H]12` [Compound 52], in series [1], the IC50 lay within 10 to 50 nM. Also, the Emax at 10 µM is 100 to 500% in series [3] and more than 500% in series [4].

Consider `COC[C@]12CC[C@@](C)(O)C[C@@H]1CC[C@H]1[C@@H]3CC[C@H](C(=O)Cn4nc5ccc(F)c(F)c5n4)[C@@]3(C)CC[C@@H]12` [Compound 54], for which the IC50 in series [1] was in the range of 10 to 50 nM. The Emax at 10 µM is 100 to 500% in series [3] and more than 500% in series [4].

On to `COC[C@]12CC[C@@](C)(O)C[C@@H]1CC[C@H]1[C@@H]3CC[C@H](C(=O)Cn4nc5cc(F)cc(F)c5n4)[C@@]3(C)CC[C@@H]12` [Compound 55], for which, in series [1], the IC50 is 50 to 100 nM. Further, the Emax at 10 µM in series [3] and in series [4] was more than 500% in each case.

Turning to `COC[C@]12CC[C@@](C)(O)C[C@H]1CC[C@H]1[C@@H]3CC[C@H](C(=O)Cn4nc5ccc(Cl)cc5n4)[C@@]3(C)CC[C@@H]12` [Compound 76], the half-maximal inhibitory concentration (IC50) in series [1] is less than 10 nM. Moreover, the Emax at 10 µM in series [3] and in series [4] was more than 500% throughout.
